Data on three compounds can be found in publication PMC8097466, “In Vivo Targeting of Escherichia coli with Vancomycin-Arginine” (Antimicrobial Agents and Chemotherapy, 2021).

Converted amounts (≈) assume the structure as drawn. Read-outs that look alike come from different tables or passages of the source. Some results are limits rather than exact numbers.

Series [1] can be described thus: Plasma pharmacokinetics after s.c. administration. To be noted: mouse, in vivo, sc. Further details: species or system CD-1 mice. The procedure:
Plasma pharmacokinetics (PK) of V-r after subcutaneous (s.c.) administration (20 and 121 mg/kg) was determined in naive male CD-1 mice (n = 3/group) using liquid chromatography-tandem mass spectrometry for analysis with a lower limit of quantitation of 5 ng/ml (Table 3).

The nature of series [2]: Thermodynamic solubility in saline.
Series [3] deals with S. agalactiae. In words: MIC determination in alignment with CLSI guidelines. To be noted: Streptococcus agalactiae. The class given is cell-based.
Series [4] relates to S. pneumoniae. Described as above. To be noted: Streptococcus pneumoniae. The class given is cell-based.
A short description of series [5]: Plasma protein binding, mouse. The series is classed as in vitro ADME.
Series [6] relates to human erythrocytes. In words: Red blood cell lysis. The conditions noted are these: fetal bovine serum-deficient media. An excerpt:
(§1) Identity was confirmed by ^1H nuclear magnetic resonance and time of flight mass spectrometry, and HCl content was quantified by ion-exchange chromatography.

Series [7] deals with HepG2. In words: HepG2 cell cytotoxicity. To be noted: fetal bovine serum-deficient media.
Excerpt: as §1

For series [8], the system named is human renal proximal tubular epithelial cells. In words: hRPTEC biomarkers cytotoxicity. The conditions noted are these: primary hRPTEC; cell count, nuclear size, DNA structure, mitochondrial mass, mitochondrial membrane potential, phospholipidosis, glutathione content; fetal bovine serum-deficient media.
Excerpt: as §1

Series [9] relates to E. coli ATCC 25922. Kind of series: 9-h thigh muscle infection model in neutropenic CD-1 mice. The series is classed as in vivo, Escherichia coli. The procedure: (§2) Using a screening-based strategy, preliminary proof-of-concept studies with V-r employed an abbreviated 9-h thigh muscle infection model in male CD-1 mice rendered neutropenic ([21]). To that end, an E. coli ATCC 25922 isolate was inoculated at 9.7 × 10^4 CFU into both thigh muscles per mouse (n = 5 per experimental group). V-r was administered s.c. every 2 h (110 to 880 mg/kg total dose) starting 1 h postinfection. At 9 h, thigh homogenates were prepared, and CFU were enumerated after culture on CLED (cystine-, lactose-, and electrolyte-deficient) agar. […] In a 24-h thigh muscle infection model, E. coli UTI89 was inoculated at 7.8 × 10^4 CFU into one thigh muscle per mouse (n = 5 to 8 per group) and treated with V-r (total dose, 200 to […]) using an every-6-h dosing regimen from 1 h postinfection. […] Overall, V-r caused an ∼4 to 7.5 log10 reduction in bacterial burden, compared with vehicle control, over the entire dose range.

In series [10] the test system is E. coli UTI89. Kind of series: 24-h thigh muscle infection model in neutropenic CD-1 mice. The conditions noted are these: for Log10 (group geometric mean ± SD CFU/g): n = 5 to 8. The class given is in vivo, Escherichia coli. The protocol: as §2
Series [11] deals with A. baumannii.
A short description of series [12]: Plasma protein binding, human.
Series [13] deals with E. coli. In words: microbe, parasite or virus in culture. To be noted: Escherichia coli.
Series [14] deals with A. baumannii. In words: microbe, parasite or virus in culture. To be noted: Acinetobacter baumannii.
Where [15] appears, read: total dose over 24 h 1,272 mg/kg.

As usually defined, the thermodynamic solubility is solubility found after equilibrating the solid with the medium. As for `CN[C@H](CC(C)C)C(=O)N[C@H]1C(=O)N[C@@H](CC(N)=O)C(=O)N[C@H]2C(=O)N[C@H]3C(=O)N[C@H](C(=O)N[C@H](C(=O)N[C@H](CCCNC(=N)N)C(N)=O)c4cc(O)cc(O)c4-c4cc3ccc4O)[C@H](O)c3ccc(c(Cl)c3)Oc3cc2cc(c3O[C@@H]2O[C@H](CO)[C@@H](O)[C@H](O)[C@H]2O[C@H]2C[C@](C)(N)[C@H](O)[C@H](C)O2)Oc2ccc(cc2Cl)[C@H]1O` [V-r], in [1] (20 mg/kg), the Clearance worked out at 7.8 mL/min/kg and the Vd worked out at 0.59 L/kg. In series [1] (121 mg/kg), the Clearance was found to be 5.4 mL/min/kg and the Vd worked out at 0.60 L/kg. The solubility (thermodynamic) in [2] (saline or isotonic, thermodynamic from solid) came out at 373 mg/mL (≈ 232000 µM).
For the compound `CN[C@H](CC(C)C)C(=O)N[C@H]1C(=O)N[C@@H](CC(N)=O)C(=O)N[C@H]2C(=O)N[C@H]3C(=O)N[C@H](C(=O)N[C@H](C(=O)O)c4cc(O)cc(O)c4-c4cc3ccc4O)[C@H](O)c3ccc(c(Cl)c3)Oc3cc2cc(c3O[C@@H]2O[C@H](CO)[C@@H](O)[C@H](O)[C@H]2O[C@H]2C[C@](C)(N)[C@H](O)[C@H](C)O2)Oc2ccc(cc2Cl)[C@H]1O` [Vancomycin], the MIC in [3] (strain B057, clinical isolate (northwest UK)) was determined as 0.5 µg/mL (≈ 0.345 µM); in [3] (strain B063, clinical isolate (northwest UK)), 1 µg/mL (≈ 0.69 µM); in series [4] it was 0.5 µg/mL (≈ 0.345 µM); in series [4] (ATCC49619) it was 0.5 µg/mL (≈ 0.345 µM); in [11] (strain B803, clinical isolate (UK) 2016) it was 128 µg/mL (≈ 88.3 µM); in [11] (strain GS2AB1, multiresistant clinical isolate (southern Europe) 2017), 128 µg/mL (≈ 88.3 µM). For the same compound, the MIC was 128 µg/mL (≈ 88.3 µM) in series [11] (strain Naval-81, clinical isolate (USA) 2006); 128 µg/mL (≈ 88.3 µM) in series [13] (ATCC25922, strain ATCC 25922, CLSI susceptible reference strain); 128 µg/mL (≈ 88.3 µM) in series [13] (ATCCBAA2340, strain ATCC BAA-2340, blaKPC, Ambler A); 128 µg/mL (≈ 88.3 µM) in [13] (ATCCBAA2469, strain ATCC BAA-2469, blaNDM-1, Ambler B); 128 µg/mL (≈ 88.3 µM) in [13] (BW25113, strain BW25113, parent strain of BW25113ΔacrB::kan mutant); 128 µg/mL (≈ 88.3 µM) in [13] (NCTC13441, strain NCTC 13441, uropathogenic ST131, blaCTX-M-15, blaOXA-1, blaTEM-1, Ambler A, D). The MIC in series [13] (NCTC13462, strain NCTC 13462, blaCTX-M-2, Ambler A) is 128 µg/mL (≈ 88.3 µM); in [13] (NCTC13846, strain NCTC 13846, clinical isolate, bacteremia, mcr-1) it was 64 µg/mL (≈ 44.2 µM); in [13] (read-out: MICs, all E. coli and A. baumannii strains tested) it was 64 to 256 µg/mL (≈ 44.2 to 177 µM); in [13] (strain AR055, blaNDM-1, blaCMY-6, blaOXA-1, Ambler B, C, D) it was 128 µg/mL (≈ 88.3 µM); in series [13] (strain AR089, blaCMY-2, Ambler C) it was 128 µg/mL (≈ 88.3 µM); in series [13] (strain AR0114, blaTEM-1B, blaKPC-3, Ambler A) it was 256 µg/mL (≈ 177 µM). Besides, the MIC turned out to be 128 µg/mL (≈ 88.3 µM) in series [13] (strain AR0137, blaNDM-6, blaOXA-9, blaCMY-42, blaCTX-M-15, Ambler B); 128 µg/mL (≈ 88.3 µM) in series [13] (strain AR0150, blaNDM-5, blaTEM-1B, blaCMY-42, Ambler A, B, C); 256 µg/mL (≈ 177 µM) in series [13] (strain AR0346, mcr-1, ESBL, Ambler A); 128 µg/mL (≈ 88.3 µM) in series [13] (strain AR0349, mcr-1, ESBL, Ambler A); 128 µg/mL (≈ 88.3 µM) in [13] (strain AR0350, mcr-1); 256 µg/mL (≈ 177 µM) in series [13] (strain AR0493, mcr-1, ESBL, Ambler A). The MIC in series [13] (strain AR0494, mcr-1) turned out to be 128 µg/mL (≈ 88.3 µM); in series [13] (strain B096a, clinical isolate (UK) 2016, AmpC, Ambler C), 128 µg/mL (≈ 88.3 µM); in series [13] (strain B808, clinical isolate (UK) 2016, blaTEM-1, blaCTX-M-15, Ambler A), 256 µg/mL (≈ 177 µM); in series [13] (strain ExPEC H5, clinical isolate (UK)), 128 µg/mL (≈ 88.3 µM); in [13] (strain H4/5, clinical isolate, blaTEM-1, blaCTX-M-15, Ambler A), 256 µg/mL (≈ 177 µM); in series [13] (strain IR3, clinical isolate, blaNDM-1, Ambler B) it was 128 µg/mL (≈ 88.3 µM). Also, the MIC was 128 µg/mL (≈ 88.3 µM) in [13] (strain IR45, clinical isolate, blaNDM-1, Ambler B); 256 µg/mL (≈ 177 µM) in [13] (strain IR57, clinical isolate, blaNDM-1, Ambler B); 128 µg/mL (≈ 88.3 µM) in series [13] (strain JW0451-2, BW25113ΔacrB::kan, AcrB-deficient efflux pump mutant); 128 µg/mL (≈ 88.3 µM) in series [13] (strain Swiss 2 (AF45), clinical isolate (South Africa) ST101, mcr-1); 128 µg/mL (≈ 88.3 µM) in series [13] (strain Swiss 13, clinical isolate (France) ST69, mcr-1); 128 µg/mL (≈ 88.3 µM) in series [13] (strain Swiss 15, clinical isolate (Switzerland) ST446, mcr-1, blaCTX-M, Ambler A). Further, the MIC in series [13] (strain UTI89, clinical isolate from patient with acute bladder infection) was 128 µg/mL (≈ 88.3 µM); in [14] it was 128 µg/mL (≈ 88.3 µM). Also, the “PPB (mouse % bound)” value in series [5] is given as 50/50 % bound. Further, the “Red blood cell lysis (CC50)” value in series [6] was above 750 µM. Further, in series [7], the “HepG2 cell cytotoxicity (CC50)” value was above 750 µM. The “hRPTEC biomarkers (CC50)” value in series [8] is above 100 µM. In series [9] (dose equivalent to the highest dose of V-r, 9 h), the “Impact on E. coli burden” value is on record as “failed to significantly impact E. coli burden”. The “Log10 change from vehicle (CFU/g)” value in series [9] (total dose over 9 h 800 mg/kg) is −0.51 log10 CFU/g; in series [10] (setting [15]) it was −1.23 log10 CFU/g. In addition, the “Log10 (group geometric mean ± SD CFU/g)” value is 6.60 ± 0.66 log10 CFU/g in series [9] (total dose over 9 h 800 mg/kg, n = 5) and 8.48 ± 1.31 log10 CFU/g in [10] (setting [15]). The “PPB (human % bound)” value in series [12] was 50/50 % bound. Also, in series [2] (thermodynamic, in saline), the “TD solubility in saline” value was above 50 mg/mL.
In [10] (24-h model, ciprofloxacin group of Table 5 (20 mg/kg total)), `O=C(O)c1cn(C2CC2)c2cc(N3CCNCC3)c(F)cc2c1=O` [Ciprofloxacin] showed a Reduction from stasis of 1.4 log10. In series [10] (total dose over 24 h 20 mg/kg), the “Log10 change from vehicle (CFU/g)” value is recorded as −6.39 log10 CFU/g and the “Log10 (group geometric mean ± SD CFU/g)” value was 3.32 ± 0.14 log10 CFU/g.
